Key:
[1] = target: T1, Progesterone receptor (Homo sapiens, UniProt P06401); test: Effective concentration (EC50) against human progesterone receptor expressed in CV-1 cell; type: functional, cell-based
T1 sequence (P06401 whole entry): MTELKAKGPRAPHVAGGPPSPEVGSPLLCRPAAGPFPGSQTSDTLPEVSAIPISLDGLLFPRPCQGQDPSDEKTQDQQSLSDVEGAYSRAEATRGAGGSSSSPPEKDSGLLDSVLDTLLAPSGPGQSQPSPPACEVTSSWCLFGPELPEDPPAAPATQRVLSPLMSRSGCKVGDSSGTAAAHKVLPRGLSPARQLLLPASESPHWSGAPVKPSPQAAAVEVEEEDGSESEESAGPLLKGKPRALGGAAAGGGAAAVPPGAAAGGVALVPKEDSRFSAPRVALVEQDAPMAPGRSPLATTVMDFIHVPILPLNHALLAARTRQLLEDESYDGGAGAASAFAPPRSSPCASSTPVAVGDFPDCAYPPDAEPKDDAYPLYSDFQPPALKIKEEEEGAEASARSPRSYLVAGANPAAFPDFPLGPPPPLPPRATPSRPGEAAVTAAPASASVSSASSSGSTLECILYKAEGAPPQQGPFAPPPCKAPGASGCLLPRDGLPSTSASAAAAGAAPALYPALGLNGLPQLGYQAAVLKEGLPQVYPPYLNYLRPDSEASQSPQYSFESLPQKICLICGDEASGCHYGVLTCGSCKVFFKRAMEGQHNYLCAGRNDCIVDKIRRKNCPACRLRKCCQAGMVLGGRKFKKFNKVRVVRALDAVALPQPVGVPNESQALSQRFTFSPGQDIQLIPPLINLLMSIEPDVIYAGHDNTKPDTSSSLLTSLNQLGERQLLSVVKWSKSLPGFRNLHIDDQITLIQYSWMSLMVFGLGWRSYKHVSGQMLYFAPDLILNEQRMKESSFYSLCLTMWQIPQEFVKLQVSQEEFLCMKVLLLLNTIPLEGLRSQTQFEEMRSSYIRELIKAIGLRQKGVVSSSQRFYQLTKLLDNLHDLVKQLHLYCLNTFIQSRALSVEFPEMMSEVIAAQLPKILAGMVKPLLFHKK

[2] = tested on: CV-1; test: Inhibitory concentration in CV-1 cell; type: functional, cell-based, Cercopithecidae; settings: Chlorocebus aethiops
[3] = target: T1, Progesterone receptor; test: Binding affinity against human progesterone receptor
[4] = target: T2, Androgen receptor (Homo sapiens, UniProt P10275)
T2 sequence (P10275 whole entry): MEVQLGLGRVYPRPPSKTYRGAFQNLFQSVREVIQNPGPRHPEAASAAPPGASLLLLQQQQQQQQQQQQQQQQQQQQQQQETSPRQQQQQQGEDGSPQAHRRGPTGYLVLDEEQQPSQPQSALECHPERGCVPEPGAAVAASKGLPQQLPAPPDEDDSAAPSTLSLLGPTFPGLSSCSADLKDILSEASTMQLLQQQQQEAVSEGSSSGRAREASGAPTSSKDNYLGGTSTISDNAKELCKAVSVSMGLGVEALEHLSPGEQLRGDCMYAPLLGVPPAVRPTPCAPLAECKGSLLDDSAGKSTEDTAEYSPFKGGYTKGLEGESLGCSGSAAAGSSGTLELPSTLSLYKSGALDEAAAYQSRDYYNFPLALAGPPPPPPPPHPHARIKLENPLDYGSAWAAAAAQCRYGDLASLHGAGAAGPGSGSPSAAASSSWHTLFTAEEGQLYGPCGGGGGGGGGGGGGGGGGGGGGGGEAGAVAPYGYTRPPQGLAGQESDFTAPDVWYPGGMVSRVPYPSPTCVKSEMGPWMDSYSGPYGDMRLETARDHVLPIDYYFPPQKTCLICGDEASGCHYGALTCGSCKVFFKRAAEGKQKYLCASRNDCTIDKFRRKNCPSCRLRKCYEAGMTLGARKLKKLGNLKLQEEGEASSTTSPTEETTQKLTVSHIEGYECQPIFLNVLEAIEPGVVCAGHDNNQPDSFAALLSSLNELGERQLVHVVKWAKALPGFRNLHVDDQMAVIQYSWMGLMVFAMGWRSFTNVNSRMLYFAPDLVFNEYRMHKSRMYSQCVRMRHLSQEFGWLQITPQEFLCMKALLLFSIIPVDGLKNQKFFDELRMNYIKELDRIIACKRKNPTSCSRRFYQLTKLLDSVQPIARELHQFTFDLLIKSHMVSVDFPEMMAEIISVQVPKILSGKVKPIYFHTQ
Description: Binding affinity against human androgen receptor

[5] = target: Estrogen receptor (Homo sapiens, UniProt Q92731+P03372); settings: cv-1
Description: IC50 determined against human estrogen receptor in CV-1 cells

[6] = target: T3, Glucocorticoid receptor (Homo sapiens, UniProt P04150); test: biochemical
T3 sequence (P04150 whole entry): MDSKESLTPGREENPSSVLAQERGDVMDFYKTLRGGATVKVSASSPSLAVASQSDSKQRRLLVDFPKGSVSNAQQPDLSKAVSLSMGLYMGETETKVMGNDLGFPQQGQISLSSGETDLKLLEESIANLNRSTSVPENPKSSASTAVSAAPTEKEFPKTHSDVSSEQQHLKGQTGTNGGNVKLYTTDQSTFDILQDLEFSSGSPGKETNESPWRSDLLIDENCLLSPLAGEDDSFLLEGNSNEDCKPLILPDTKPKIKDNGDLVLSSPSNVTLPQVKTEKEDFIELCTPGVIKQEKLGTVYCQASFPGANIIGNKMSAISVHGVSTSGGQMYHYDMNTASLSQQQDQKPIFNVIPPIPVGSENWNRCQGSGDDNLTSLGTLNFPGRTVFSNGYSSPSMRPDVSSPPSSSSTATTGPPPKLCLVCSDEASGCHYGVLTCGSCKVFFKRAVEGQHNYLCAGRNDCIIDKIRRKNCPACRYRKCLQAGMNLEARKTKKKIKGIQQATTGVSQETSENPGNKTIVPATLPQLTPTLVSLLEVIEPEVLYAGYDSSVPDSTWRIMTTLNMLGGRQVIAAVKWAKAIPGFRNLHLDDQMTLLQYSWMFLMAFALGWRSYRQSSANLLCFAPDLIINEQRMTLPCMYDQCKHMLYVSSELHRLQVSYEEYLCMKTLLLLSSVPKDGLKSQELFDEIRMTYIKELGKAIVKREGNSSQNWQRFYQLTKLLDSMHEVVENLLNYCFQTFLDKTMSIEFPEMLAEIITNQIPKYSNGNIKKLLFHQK
Description: Binding affinity against human glucocorticoid receptor expressed in SF-12 cells

Structure (SMILES) | EC50 [1] [µM] | IC50 [2] [µM] | Ki [3] [µM] | Ki [4] [µM] | IC50 [5] [µM] | Ki [6] [µM]
CC1=CC(C)(C)Nc2ccc3c(c21)/C(=C/c1ccc(F)c(F)c1)Oc1ccccc1-3 | 0.0147 | > 10 | 0.0036 | > 1 | > 10 | 0.237
CC1=CC(C)(C)Nc2ccc3c(c21)/C(=C/c1ccccc1C)Oc1ccccc1-3 | 0.0057 | > 10 | 0.00066 | 0.844 | < 0.02 | 0.564
CC1=CC(C)(C)Nc2ccc3c(c21)/C(=C/c1cc(F)ccc1F)Oc1ccccc1-3 | 0.0147 | > 10 | 0.0015 | 0.887 | > 10 | 0.173

Reference: ChEMBL document CHEMBL1131161 (J Med Chem, 1998)
